Measured values reported in patent US11447445B2, “Diabetes and metabolic syndrome treatment with a novel dual modulator of soluble epoxide hydrolase and peroxisome proliferator-activated receptors” (priority 2015, dated 2022).
In brackets after ≈: the same amount, converted by molar mass. Where two headings read alike, the source gives them in different places.

Assays:
recombinant human sEH = biological target: T1, recombinant human sEH (Homo sapiens, UniProt P34913); experiment: biochemical
T1 sequence (P34913 1-555): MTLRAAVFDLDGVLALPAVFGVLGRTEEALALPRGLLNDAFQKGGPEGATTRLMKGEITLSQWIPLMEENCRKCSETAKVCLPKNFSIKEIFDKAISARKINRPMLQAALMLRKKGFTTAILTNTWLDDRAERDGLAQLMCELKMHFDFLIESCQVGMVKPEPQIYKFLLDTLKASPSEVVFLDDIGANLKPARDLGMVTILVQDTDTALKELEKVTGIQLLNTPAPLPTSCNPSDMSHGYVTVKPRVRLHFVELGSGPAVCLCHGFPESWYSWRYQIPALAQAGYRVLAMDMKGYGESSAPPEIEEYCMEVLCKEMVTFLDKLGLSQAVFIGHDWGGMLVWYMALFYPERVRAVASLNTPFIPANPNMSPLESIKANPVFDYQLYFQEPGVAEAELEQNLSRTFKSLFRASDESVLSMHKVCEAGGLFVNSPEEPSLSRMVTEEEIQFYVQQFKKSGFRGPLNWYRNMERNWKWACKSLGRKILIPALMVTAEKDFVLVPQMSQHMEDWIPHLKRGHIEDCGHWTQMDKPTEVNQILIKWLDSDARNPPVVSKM

PPARα = biological target: T2, PPARα (Homo sapiens, UniProt Q07869); type: cell-based
T2 construct: expressed in transfected cells; host or cells: COS-7
Procedure: (§1) COS-7 cells (PPAR) were grown in DMEM high glucose, supplemented with 10% fetal calf serum (FCS), 1% sodium pyruvate (SP) and 1% penicillin/streptomycin (PS) at 37° C. and 5% CO2. Used plasmids for PPAR transactivation assay are shown under supporting informations.
(§2) The day before transfection, COS-7 cells were seeded in 96-well plates with a density of 30,000 cells per well. Transient transfection was carried out using Lipofectamine LTX reagent (Invitrogen, Carlsbad, Calif., USA) according to the manufacturer's protocol with pFR-Luc (Stratagene), pRL-SV40 (Promega) and the Ga14-fusion receptor plasmids (pFA-CMV-hPPAR-LBD) of the respective PPAR subtype. 5 h after transfection, medium was changed to DMEM without phenol red and 10% FCS, supplemented with 1% SP, 1% PS and 1% L-glutamine, now additionally containing 0.1% DMSO and the respective test compound or 0.1% DMSO alone as untreated control. Each concentration was tested in triplicate wells and each experiment was repeated independently at least three times. Following overnight incubation with the test compounds, cells were assayed for luciferase activity using Dual-Glo™ Luciferase Assay System (Promega) according to the manufacturer's protocol. Luminescence was measured with an Infinite m200 luminometer (Tecan Deutschland GmbH). Each concentration of the compounds was tested in triplicate wells. Normalization for transfection efficacy and cell growth was done by division of the firefly luciferase data by renilla luciferase data resulting in relative light units. Activation factors were obtained by dividing by DMSO control. […] All compounds were evaluated by comparison of the achieved maximum effect to that of the reference compound (pioglitazone for PPARγ, GW7647 for PPARa, and L165041 for PPARS each with 1 μM). Data are expressed as mean±SE; n≥3.
(§3) The Gal4-fusion receptor plasmids pFA-CMV-PPARa-LBD, pFA-CMV-PPARS-LBD and pFA-CMV-PPARγ-LBD containing the hinge region and ligand binding domain (LBD) for each of the PPAR subtypes, respectively, were constructed by integrating cDNA fragments obtained from PCR amplification of human monocytes into the SmaI/XbaI cleavage site of the pFA-CMV vector (Stratagene, La Jolla, Calif., USA) and have already been published. […] Frame and sequence of the fusion receptors were verified by sequencing. pFR-Luc (Stratagene) was used as reporter plasmid and pRL-SV40 (Promega) for normalization of transfection efficacy and cell growth.

PPARδ = biological target: T3, PPARδ (Homo sapiens, UniProt Q03181); experiment: PPAR transactivation assay in COS-7 cells (Gal4-hPPAR-LBD, luciferase); type: cell-based
T3 construct: expressed in transfected cells; host or cells: COS-7
Procedure: as §1, §2, §3

[1] = Water solubility approximation; type: physicochemical; conditions: PBS with 0.01% Polysorbate 20, aqueous with cosolvent or surfactant or cyclodextrin, kinetic from dmso stock; PBS pH 7.4, 0.01% Polysorbate 20, 1% DMSO; precipitation at 650 nm; read-out: w.s. (water solubility)
Procedure: PBS at pH 7.4 with 0.01% Polysorbate 20 (Tween) was combined with 1% of a DMSO solution of the inquired compound in a 96-well transparent flat bottom microtiter plate. Precipitation of the compound was measured at 650 nm with a Tecan Infinite 200 (Tecan Group Ltd, Mannedorf, Switzerland).

[2] = at 10 μM, read-out: sEH inhibition @10 μM (converted)

T2 sequence (Q07869 239-466): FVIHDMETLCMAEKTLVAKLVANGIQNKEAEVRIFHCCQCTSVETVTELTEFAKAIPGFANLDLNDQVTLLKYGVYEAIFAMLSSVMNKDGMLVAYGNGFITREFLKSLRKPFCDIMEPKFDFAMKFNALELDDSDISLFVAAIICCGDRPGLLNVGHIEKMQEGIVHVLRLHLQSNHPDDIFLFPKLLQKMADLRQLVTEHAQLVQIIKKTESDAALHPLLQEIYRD
T3 sequence (Q03181 211-439): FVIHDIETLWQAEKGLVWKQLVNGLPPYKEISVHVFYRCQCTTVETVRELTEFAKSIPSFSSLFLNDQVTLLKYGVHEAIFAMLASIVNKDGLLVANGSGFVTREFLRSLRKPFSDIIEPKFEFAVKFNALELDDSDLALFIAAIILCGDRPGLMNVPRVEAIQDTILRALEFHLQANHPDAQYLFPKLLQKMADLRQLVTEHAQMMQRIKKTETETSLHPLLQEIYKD

SMILES | IC50 (recombinant human sEH; read-out: IC50 sEH (converted)) [nM] | EC50 PPARα (PPARα; i.a. = inactive) | EC50 PPARδ (PPARδ; i.a. = inactive) | solubility [1] [µM] | other results
CC/C(=C\c1ccc(C(=O)NCc2ccccc2C(F)(F)F)cc1)C(=O)O [Compound 1d, (E)-4-[N-((2-Trifluoromethyl)benzyl)benzamide]-alpha-ethylcinnamic acid] | 120 ± 10 | i.a. | i.a. |  | 
C/C(=C\c1ccc(C(=O)NCc2ccccc2C(F)(F)F)cc1)C(=O)O [Compound 17d, (E)-4-[N-((2-Trifluoromethyl)benzyl)benzamide]-alpha-methylcinnamic acid] | 4900 ± 60 |  |  | 500 (≈ 182 µg/mL) | 
CCC/C(=C\c1ccc(C(=O)NCc2ccccc2C(F)(F)F)cc1)C(=O)OCC [Compound 18a, Ethyl (E)-4-[N-((2-trifluoromethyl)benzyl)benzamide]-alpha-propylcinnamate] | 160 ± 60 |  |  | 10 (≈ 4.19 µg/mL) | 
CCOC(=O)/C(=C/c1ccc(C(=O)NCc2ccc(OC)cc2)cc1)CC [Compound 10a, Ethyl (E)-4-[N-((4-methoxy)benzyl)benzamide]-alpha-ethylcinnamate] |  |  |  | 10 (≈ 3.67 µg/mL) | IC50 (recombinant human sEH): 550 nM
O=C(O)/C(=C/c1ccc(C(=O)NCc2ccccc2C(F)(F)F)cc1)c1ccccc1 [Compound 19d, (E)-4-[N-((2-Trifluoromethyl)benzyl)benzamide]-alpha-phenylcinnamic acid] | 800 ± 10 |  |  | 50 (≈ 21.3 µg/mL) | 
CCOC(=O)C(C)Cc1ccc(C(=O)NCc2ccccc2C(F)(F)F)cc1 (stereo not shown) [Compound 17b, Ethyl 2-methyl 3-[4-(N-((2-trifluoromethyl)benzyl)benzamide)]propanoate] | 250 ± 40 | i.a. | i.a. | 10 (≈ 3.93 µg/mL) | 
CCOC(=O)/C(=C/c1ccc(C(=O)NCc2ccc(Cl)cc2)cc1)CC [Compound 11a, Ethyl (E)-4-[N-((4-chloro)benzyl)benzamide]-alpha-ethylcinnamate] | 3000 ± 1400 |  |  | 10 (≈ 3.72 µg/mL) | 
CCC(Cc1ccc(C(=O)NCc2ccccc2C)cc1)C(=O)O (stereo not shown) [Compound 3c, 2-Ethyl 3-[4-(N-((2-methyl)benzyl)benzamide)]propionic acid] |  | i.a. | n.t. i.a. i.a. n.t. |  | inhibition at 10 µM (recombinant human sEH; [2]): 25%
CCC(Cc1cccc(C(=O)NCc2ccccc2C(F)(F)F)c1)C(=O)O (stereo not shown) [Compound 15c, 2-Ethyl 3-[3-(N-((2-trifluoromethyl)benzyl)benzamide)]propionic acid] | 900 ± 80 |  | i.a. |  | PPARα activation @10 μM (PPARα; at 10 μM, compared to GW7647 1 μM): @10 μM (34%)
CC/C(=C\c1ccc(C(=O)NCc2ccc(Cl)cc2)cc1)C(=O)O [Compound 11d, (E)-4-[N-((4-Chloro)benzyl)benzamide]-alpha-ethylcinnamic acid] | 5000 |  |  | 100 (≈ 34.4 µg/mL) | 
CCC(Cc1ccc(C(=O)NCc2ccc(F)cc2)cc1)C(=O)O (stereo not shown) [Compound 7c, 2-Ethyl 3-[4-(N-((4-fluoro)benzyl)benzamide)]propionic acid] |  | n.t. i.a. i.a. n.t. | n.t. i.a. i.a. n.t. |  | inhibition at 10 µM (recombinant human sEH; [2]): 28%
CCOC(=O)/C(C)=C/c1ccc(C(=O)NCc2ccccc2C(F)(F)F)cc1 [Compound 17a, Ethyl (E)-4-[N-((2-trifluoromethyl)benzyl)benzamide]-alpha-methylcinnamate] | 100 ± 30 |  |  | 10 (≈ 3.91 µg/mL) | 
CCOC(=O)C(CC)Cc1ccc(C(=O)NCc2ccc(Cl)cc2)cc1 (stereo not shown) [Compound 11b, Ethyl 2-ethyl 3-[4-(N-((4-chloro)benzyl)benzamide)]propanoate] |  | n.t. i.a. i.a. n.t. | n.t. i.a. i.a. n.t. | 10 (≈ 3.74 µg/mL) | 
CCOC(=O)/C(=C/c1ccc(C(=O)NCc2ccccc2C(F)(F)F)cc1)CC [Compound 1a] | 63 ± 3 | i.a. | i.a. |  | 
CCOC(=O)C(CC)Cc1ccc(C(=O)NCc2ccc(OC)cc2)cc1 (stereo not shown) [Compound 10b, Ethyl 2-ethyl 3-[4-(N-((4-methoxy)benzyl)benzamide)]propanoate] |  | n.t. i.a. i.a. n.t. | n.t. i.a. i.a. n.t. | 10 (≈ 3.69 µg/mL) | 
CCC/C(=C\c1ccc(C(=O)NCc2ccccc2C(F)(F)F)cc1)C(=O)O [Compound 18d, (E)-4-[N-((2-Trifluoromethyl)benzyl)benzamide]-alpha-propylcinnamic acid] | 700 ± 60 |  |  | 5 (≈ 1.96 µg/mL) | 
CCC(Cc1ccc(C(=O)NCc2ccc(Cl)cc2)cc1)C(=O)O (stereo not shown) [Compound 11c, 2-Ethyl 3-[4-(N-((4-chloro)benzyl)benzamide)]propionic acid] |  | n.t. i.a. i.a. n.t. | n.t. i.a. i.a. n.t. | 500 (≈ 173 µg/mL) | 
CCOC(=O)/C(=C/c1ccc(C(=O)NCc2ccccc2C(F)(F)F)cc1)c1ccccc1 [Compound 19a, Ethyl (E)-4-[N-((2-trifluoromethyl)benzyl)benzamide]-alpha-phenylcinnamate] | 160 ± 30 |  |  | 1 (≈ 0.453 µg/mL) | 
CCC(Cc1ccc(C(=O)NCc2ccccc2Cl)cc1)C(=O)O (stereo not shown) [Compound 4c, 2-Ethyl 3-[4-(N-((2-chloro)benzyl)benzamide)]propionic acid] |  | n.t. i.a. i.a. n.t. | n.t. i.a. i.a. n.t. |  | inhibition at 10 µM (recombinant human sEH; [2]): 20%
CCC(Cc1ccc(C(=O)NCc2ccccc2)cc1)C(=O)O (stereo not shown) [Compound 2c, 2-Ethyl 3-[4-(N-benzylbenzamide)]propionic acid] |  |  |  |  | inhibition at 10 µM (recombinant human sEH; read-out: sEH inhibition @10 μM): 4%; EC50 PPARα (PPARα): n.t. i.a. i.a. n.t.; EC50 PPARδ (PPARδ): n.t. i.a. i.a. n.t.
O=C(NCc1ccccc1C(F)(F)F)c1ccc(C2CC2C(=O)O)cc1 (stereo not shown) [Compound 22, 2-[4-(N-((2-trifluoromethyl)benzyl)benzamide)]cyclopropan carboxylic acid] | 5500 ± 200 | i.a. | i.a. |  | 
CCOC(=O)/C(=C/c1ccc(C(=O)NCc2ccccc2OC(F)(F)F)cc1)CC [Compound 6a, Ethyl (E)-4-[N-((2-trifluoromethoxy)benzyl)benzamide]-alpha-ethylcinnamate] | 60 ± 13 |  |  | 10 (≈ 4.21 µg/mL) | 
CCOC(=O)C(CC)Cc1ccc(C(=O)NCc2ccccc2OC(F)(F)F)cc1 (stereo not shown) [Compound 6b, Ethyl 2-ethyl 3-[4-(N-((2-trifluoromethoxy)benzyl)benzamide)]propanoate] |  | n.t. i.a. i.a. n.t. | n.t. i.a. i.a. n.t. | 100 (≈ 42.3 µg/mL) | 
CCOC(=O)C(CC)Cc1cccc(C(=O)NCc2ccccc2C(F)(F)F)c1 (stereo not shown) [Compound 15b, Ethyl 2-ethyl 3-[3-(N-((2-trifluoromethyl)benzyl)benzamide)]propanoate] | 27 ± 2 | i.a. | i.a. |  | 
CCOC(=O)C(CC)Cc1ccc(C(=O)NCc2ccc(F)cc2)cc1 (stereo not shown) [Compound 7b, Ethyl 2-ethyl 3-[4-(N-((4-fluoro)benzyl)benzamide)]propanoate] |  |  |  |  | EC50 PPARα (PPARα): n.t. i.a. i.a. n.t.; EC50 PPARδ (PPARδ): n.t. i.a. i.a. n.t.
CC/C(=C\c1ccc(C(=O)NCc2ccc(C(F)(F)F)cc2)cc1)C(=O)O [Compound 8d, (E)-4-[N-((4-Trifluoromethyl)benzyl)benzamide]-alpha-ethylcinnamic acid] | 2800 |  |  | 500 (≈ 189 µg/mL) | 
